Literature values in US11883460B2, “Antibiotic compositions for treating bacterial infections” (AGENCY FOR SCIENCE, TECHNOLOGY AND RESEARCH, priority 2014, dated 2024).

Conditions: compared with colistimethate sodium

Stability in human plasma: more stable than colistimethate sodium
Substance: Colistin sulfate
